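Exposure lasted 48 hours, with cells grown in 96-well plates and compounds tested at five concentrations. GI50 = concentration required for 50% inhibition of growth.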 Activity calls are given as the source filed them. Cut-off read from the data, not from the text of the source: active = GI50 up to about 1.1 µM and inactive = higher.
Tests used:
Assay in all cases: NCI anticancer screen, dose series, 48 h
786-0 = system: 786-0
ACHN = system: ACHN
BT-549 = system: BT-549
EKVX = system: EKVX
HOP-92 = system: HOP-92
M14 = system: M14
MDA-MB-435 = system: MDA-MB-435
MDA-N = system: MDA-N
Malme-3M = system: Malme-3M
NCI-H226 = system: NCI-H226
OVCAR-4 = system: OVCAR-4
OVCAR-5 = system: OVCAR-5
PC-3 = system: PC-3
SF-268 = system: SF-268
SNB-19 = system: SNB-19
SNB-75 = system: SNB-75
SR = system: SR
HCC 2998 = system: HCC 2998
HOP-62 = system: HOP-62
RPMI-8226 = system: RPMI-8226

Compound	GI50 (786-0)	GI50 (ACHN)	GI50 (BT-549)	GI50 (EKVX)	GI50 (HOP-92)	GI50 (M14)	GI50 (MDA-MB-435)	GI50 (MDA-N)	GI50 (Malme-3M)	GI50 (NCI-H226)	GI50 (OVCAR-4)	GI50 (OVCAR-5)	GI50 (PC-3)	GI50 (SF-268)	GI50 (SNB-19)	GI50 (SNB-75)	GI50 (SR)	GI50 (HCC 2998)	GI50 (HOP-62)	GI50 (RPMI-8226)
COC(=O)Cc1c(C(=O)CC(C)(C)n2cnc(CCN3C(=O)CCC3=O)c2)[nH]c2ccccc12	> 100 µM (inactive)	> 100 µM (inactive)	> 100 µM (inactive)	> 100 µM (inactive)	15 µM (inactive)	> 100 µM (inactive)	> 100 µM (inactive)	> 100 µM (inactive)	> 100 µM (inactive)	> 100 µM (inactive)	> 100 µM (inactive)	> 100 µM (inactive)	> 100 µM (inactive)	> 100 µM (inactive)	> 100 µM (inactive)	27 µM (inactive)	34.5 µM (inactive)	–	–	–
O=c1c(Cc2cccc(Cc3c(O)oc4ccccc4c3=O)c2)c(O)oc2ccccc12	> 100 µM (inactive)	> 100 µM (inactive)	> 100 µM (inactive)	> 100 µM (inactive)	> 100 µM (inactive)	> 100 µM (inactive)	> 100 µM (inactive)	> 100 µM (inactive)	> 100 µM (inactive)	> 100 µM (inactive)	> 100 µM (inactive)	> 100 µM (inactive)	> 100 µM (inactive)	> 100 µM (inactive)	> 100 µM (inactive)	43 µM (inactive)	–	> 100 µM (inactive)	> 100 µM (inactive)	> 100 µM (inactive)
O=C(Nc1ccccc1)OCCN=C1c2ccccc2CCc2ccccc21	32.6 µM (inactive)	15.4 µM (inactive)	21 µM (inactive)	33.2 µM (inactive)	–	21.8 µM (inactive)	22.6 µM (inactive)	19.6 µM (inactive)	22.5 µM (inactive)	29.4 µM (inactive)	21.9 µM (inactive)	28.7 µM (inactive)	19.6 µM (inactive)	25.6 µM (inactive)	14.8 µM (inactive)	11.9 µM (inactive)	12.2 µM (inactive)	27.5 µM (inactive)	19.7 µM (inactive)	12.8 µM (inactive)
C/C=C\C(CC(=O)NCCC1CN(C(=O)c2ccccc2)c2ccccc21)CC(=O)OC (stereo not drawn)	> 100 µM (inactive)	> 100 µM (inactive)	> 100 µM (inactive)	> 100 µM (inactive)	> 100 µM (inactive)	> 100 µM (inactive)	> 100 µM (inactive)	> 100 µM (inactive)	> 100 µM (inactive)	–	> 100 µM (inactive)	> 100 µM (inactive)	> 100 µM (inactive)	> 100 µM (inactive)	> 100 µM (inactive)	> 100 µM (inactive)	–	> 100 µM (inactive)	> 100 µM (inactive)	> 100 µM (inactive)
CN(CCC(=O)N1CC(CCl)c2ccc([N+](=O)[O-])cc21)CCC(=O)N1CC(CCl)c2ccc([N+](=O)[O-])cc21 (stereo not drawn)	10.9 µM (inactive)	0.074 µM (active)	23.6 µM (inactive)	12.7 µM (inactive)	–	10.1 µM (inactive)	13.9 µM (inactive)	15 µM (inactive)	10.1 µM (inactive)	6.95 µM (inactive)	42.7 µM (inactive)	> 100 µM (inactive)	6.52 µM (inactive)	12.1 µM (inactive)	> 100 µM (inactive)	2.56 µM (inactive)	1.77 µM (inactive)	5.79 µM (inactive)	33.7 µM (inactive)	3.96 µM (inactive)
COC(=O)C(=O)C(C(=O)C(=O)Nc1ccc(C)cc1C)c1nc2ccc(Cl)cc2nc1O (stereo not drawn)	> 100 µM (inactive)	> 100 µM (inactive)	> 100 µM (inactive)	34.6 µM (inactive)	> 100 µM (inactive)	> 100 µM (inactive)	> 100 µM (inactive)	> 100 µM (inactive)	–	> 100 µM (inactive)	> 100 µM (inactive)	> 100 µM (inactive)	> 100 µM (inactive)	> 100 µM (inactive)	> 100 µM (inactive)	> 100 µM (inactive)	–	> 100 µM (inactive)	> 100 µM (inactive)	–
O=C(O)c1ccc(Nc2nc3cc(C(F)(F)F)ccc3nc2-c2ccccc2)cc1	18.7 µM (inactive)	19.1 µM (inactive)	62.5 µM (inactive)	11.3 µM (inactive)	–	–	31.6 µM (inactive)	30.6 µM (inactive)	23.7 µM (inactive)	25 µM (inactive)	–	45.6 µM (inactive)	18.5 µM (inactive)	48.8 µM (inactive)	30.6 µM (inactive)	18.3 µM (inactive)	6.89 µM (inactive)	16.7 µM (inactive)	17.2 µM (inactive)	16.4 µM (inactive)
CCCCC/C(=N\c1[nH]cnc1C(N)=O)OCC	> 100 µM (inactive)	> 100 µM (inactive)	> 100 µM (inactive)	32.3 µM (inactive)	–	94.2 µM (inactive)	> 100 µM (inactive)	> 100 µM (inactive)	> 100 µM (inactive)	> 100 µM (inactive)	> 100 µM (inactive)	> 100 µM (inactive)	> 100 µM (inactive)	> 100 µM (inactive)	> 100 µM (inactive)	–	> 100 µM (inactive)	> 100 µM (inactive)	> 100 µM (inactive)	> 100 µM (inactive)
COc1ccc(/C=N/n2c(=O)[nH]c3ccccc3c2=O)cc1	> 100 µM (inactive)	> 100 µM (inactive)	> 100 µM (inactive)	59.8 µM (inactive)	> 100 µM (inactive)	> 100 µM (inactive)	> 100 µM (inactive)	> 100 µM (inactive)	–	> 100 µM (inactive)	–	> 100 µM (inactive)	> 100 µM (inactive)	> 100 µM (inactive)	> 100 µM (inactive)	50.8 µM (inactive)	> 100 µM (inactive)	–	> 100 µM (inactive)	> 100 µM (inactive)
c1ccc(CCCN2C3CCC2CN(CCOC(c2ccccc2)c2ccccc2)C3)cc1	10 µM (inactive)	13.4 µM (inactive)	12.4 µM (inactive)	7.46 µM (inactive)	12.5 µM (inactive)	4.99 µM (inactive)	12.4 µM (inactive)	13.2 µM (inactive)	12.5 µM (inactive)	11.3 µM (inactive)	10.2 µM (inactive)	12.7 µM (inactive)	6.43 µM (inactive)	14 µM (inactive)	14.6 µM (inactive)	5.41 µM (inactive)	–	5.21 µM (inactive)	13.5 µM (inactive)	3.11 µM (inactive)
c1ccc(/N=C(\N2CCOCC2)N(CCN2CCOCC2)c2ccccc2)cc1	> 100 µM (inactive)	–	> 100 µM (inactive)	> 100 µM (inactive)	–	> 100 µM (inactive)	> 100 µM (inactive)	> 100 µM (inactive)	> 100 µM (inactive)	> 100 µM (inactive)	> 100 µM (inactive)	–	> 100 µM (inactive)	> 100 µM (inactive)	> 100 µM (inactive)	> 100 µM (inactive)	> 100 µM (inactive)	> 100 µM (inactive)	> 100 µM (inactive)	> 100 µM (inactive)
O=C(COc1ccc(OCC(=O)N2C(=O)CC(=O)N(c3ccc(Cl)cc3)C2=S)cc1)N1C(=O)CC(=O)N(c2ccc(Cl)cc2)C1=S	19.6 µM (inactive)	27.4 µM (inactive)	23.3 µM (inactive)	42.2 µM (inactive)	20.7 µM (inactive)	32 µM (inactive)	32 µM (inactive)	28.1 µM (inactive)	3.26 µM (inactive)	26.6 µM (inactive)	33.6 µM (inactive)	12.9 µM (inactive)	29.3 µM (inactive)	40.4 µM (inactive)	26.9 µM (inactive)	72.9 µM (inactive)	–	28.5 µM (inactive)	–	49.5 µM (inactive)
Nc1n[n+]([O-])c2cc([N+](=O)[O-])ccc2[n+]1[O-]	4.63 µM (inactive)	3.35 µM (inactive)	18.1 µM (inactive)	> 10 µM (inactive)	–	4.84 µM (inactive)	1.75 µM (inactive)	2.07 µM (inactive)	–	15.5 µM (inactive)	3.43 µM (inactive)	21.2 µM (inactive)	2.19 µM (inactive)	–	13.6 µM (inactive)	26.7 µM (inactive)	3.18 µM (inactive)	–	6.81 µM (inactive)	2.11 µM (inactive)
CC(C)(C)C1=CC(O)(c2c3ccccc3c(C3(O)C=C(C(C)(C)C)C(=O)C(C(C)(C)C)=C3)c3ccccc23)C=C(C(C)(C)C)C1=O	> 100 µM (inactive)	> 100 µM (inactive)	> 100 µM (inactive)	> 100 µM (inactive)	< 0.01 µM (active)	> 100 µM (inactive)	< 0.01 µM (active)	> 100 µM (inactive)	> 100 µM (inactive)	> 100 µM (inactive)	> 100 µM (inactive)	> 100 µM (inactive)	> 100 µM (inactive)	> 100 µM (inactive)	> 100 µM (inactive)	35.2 µM (inactive)	–	–	> 100 µM (inactive)	58.3 µM (inactive)
Cn1ncc2c(NCCc3ccccc3)nc(Cl)nc21	23.4 µM (inactive)	28.6 µM (inactive)	23.5 µM (inactive)	1.75 µM (inactive)	15.3 µM (inactive)	15 µM (inactive)	20.6 µM (inactive)	23.2 µM (inactive)	58.9 µM (inactive)	21.5 µM (inactive)	18.8 µM (inactive)	14 µM (inactive)	17.9 µM (inactive)	38.2 µM (inactive)	44.9 µM (inactive)	21.1 µM (inactive)	–	18.8 µM (inactive)	24.4 µM (inactive)	13.7 µM (inactive)

From ChEMBL document CHEMBL1201862, “PubChem BioAssay data set” (2004)
